Key:
[1] = biological target: T1, TDO (A172 human glioblastoma cells) (Homo sapiens, UniProt P48775); experiment: A172 Kynurenine cell based assay; conditions: 500 μM L-tryptophan, 48 hours, kynurenine by Erhlich's reagent
T1 construct: This assay utilised cancer cells which expressed either TDO or IDO; endogenous in cells; host or cells: A172 human glioblastoma cells
Procedure: (§1) Exemplary compounds of the invention were prepared, and tested to determine their effect as TDO and/or IDO inhibitors. Two different assays were employed: 1. a cell-based assay for detecting the effect of test compounds on kynurenine production in two different cancer cell types. This assay utilised cancer cells which expressed either TDO or IDO and as such was used as a means of testing compound activity at these two enzymes in a cell-based context. 2. a TDO and IDO biochemical coupled assay which utilised recombinantly produced and purified TDO and IDO enzymes in combination with the enzyme formamidase. This coupled enzyme system allowed conversion of N-formylkynurenine produced by TDO or IDO activity to kynurenine which was then quantified by fluorescence following addition of Erhlich's Reagent The protocols for these are set out below.
(§2) A172 (human glioblastoma) and SKOV3 (human ovarian adenocarcinoma) cells were seeded in a 96 well plate at 30,000 or 40,000 cells per well respectively in phenol red-free RPMI supplemented with 10% FCS, 2 mM L-glutamine and 500 μM L-tryptophan. IDO expression was induced in the SKOV3 cells by the addition of 500 ng/ml IFN-γ. Cells were incubated at 37° C. with or without the addition of test compound. After 48 hours, the cells were removed by centrifugation and Erhlich's reagent was added to the supernatant. The Erhlich's reagent was incubated for 5 minutes before the absorbance was read at 490 nm.

[2] = biological target: T2, IDO (SKOV3 human ovarian adenocarcinoma cells, IFN-γ induced) (Homo sapiens, UniProt P14902); experiment: SKOV3 Kynurenine cell based assay; conditions: IDO induced by 500 ng/ml IFN-γ, 500 μM L-tryptophan, 48 hours
T2 construct: IDO expression was induced in the SKOV3 cells by the addition of 500 ng/ml IFN-γ; endogenous in cells; host or cells: SKOV3 human ovarian adenocarcinoma cells, induced with IFN-γ
T2 sequence (P14902 whole entry): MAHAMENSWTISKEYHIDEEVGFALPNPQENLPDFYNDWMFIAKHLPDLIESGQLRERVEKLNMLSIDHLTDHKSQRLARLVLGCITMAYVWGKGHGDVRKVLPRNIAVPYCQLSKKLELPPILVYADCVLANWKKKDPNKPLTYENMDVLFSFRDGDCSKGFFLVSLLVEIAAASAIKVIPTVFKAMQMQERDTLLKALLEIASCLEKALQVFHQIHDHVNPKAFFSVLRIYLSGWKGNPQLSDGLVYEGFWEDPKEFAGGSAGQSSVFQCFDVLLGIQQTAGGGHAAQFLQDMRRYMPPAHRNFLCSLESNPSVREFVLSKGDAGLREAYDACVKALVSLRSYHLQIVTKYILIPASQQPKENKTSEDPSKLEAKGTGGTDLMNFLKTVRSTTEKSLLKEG
Procedure: as §1
as §2, with “supernatant.” for “supernatant. The Erhlich's reagent was incubated for 5 minutes before the absorbance was read at 490 nm.”

T1 sequence (P48775 whole entry): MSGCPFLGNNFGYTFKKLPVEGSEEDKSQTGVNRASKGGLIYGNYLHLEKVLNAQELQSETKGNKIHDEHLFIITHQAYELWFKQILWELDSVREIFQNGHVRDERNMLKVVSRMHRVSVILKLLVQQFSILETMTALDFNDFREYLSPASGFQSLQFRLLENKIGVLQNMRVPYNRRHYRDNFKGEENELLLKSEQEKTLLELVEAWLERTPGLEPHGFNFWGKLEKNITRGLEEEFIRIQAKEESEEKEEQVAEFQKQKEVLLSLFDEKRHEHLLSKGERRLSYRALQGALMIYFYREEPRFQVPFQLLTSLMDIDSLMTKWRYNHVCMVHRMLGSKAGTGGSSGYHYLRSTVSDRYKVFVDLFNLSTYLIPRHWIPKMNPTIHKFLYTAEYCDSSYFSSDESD

Structure (SMILES)	A172 Kynurenine cell based assay pIC50 [1]	SKOV3 Kynurenine cell based assay pIC50 [2]
CC(=O)N1CCC(c2c[nH]c3cc(OCc4ccccc4)ccc23)CC1 [Compound 221]	+ (+ = pIC50 4.00-4.99)	+ (+ = pIC50 4.00-4.99)
CC(=O)N1CCC(c2c[nH]c3ccc(Cl)cc23)CC1 [Compound 238]	+ (+ = pIC50 4.00-4.99)	+ (+ = pIC50 4.00-4.99)
CS(=O)(=O)N1CCC(c2c[nH]c3ccccc23)C(O)C1 (stereo not drawn) [Compound 187]	+ (+ = pIC50 4.00-4.99)	+− (+− = pIC50 <4.00)
CC(=O)N1CC=C(c2c[nH]c3c(F)cc(F)cc23)CC1 [Compound 231]	+ (+ = pIC50 4.00-4.99)	+ (+ = pIC50 4.00-4.99)
O=C1CN(c2c[nH]c3ccccc23)CCN1 [Compound 188]	++ (++ = pIC50 5.00-5.99)	+− (+− = pIC50 <4.00)
O=C1CCC2CN(c3c[nH]c4ccccc34)CCN12 (stereo not drawn) [Compound 190]	++ (++ = pIC50 5.00-5.99)	+− (+− = pIC50 <4.00)
CC(=O)N1CCC(c2c[nH]c3ccc(C(F)(F)F)cc23)CC1 [Compound 241]	+ (+ = pIC50 4.00-4.99)	+ (+ = pIC50 4.00-4.99)
CN1CC2CN(c3c[nH]c4ccccc34)CCN2C1=O (stereo not drawn) [Compound 192]	+ (+ = pIC50 4.00-4.99)	+− (+− = pIC50 <4.00)
CC(=O)N1CC=C(c2c[nH]c3cc(C(F)(F)F)ccc23)CC1 [Compound 223]	+ (+ = pIC50 4.00-4.99)	+ (+ = pIC50 4.00-4.99)
CS(=O)(=O)N1CCC(c2c[nH]c3ccc(C(F)(F)F)cc23)CC1 [Compound 240]	+ (+ = pIC50 4.00-4.99)	++ (++ = pIC50 5.00-5.99)
Fc1ccc2c(C3CCN(c4ccccn4)CC3)c[nH]c2c1 [Compound 193]	++ (++ = pIC50 5.00-5.99)	++ (++ = pIC50 5.00-5.99)
CC1(C)CN(c2c[nH]c3ccccc23)CCN1S(C)(=O)=O [Compound 191]	++ (++ = pIC50 5.00-5.99)	+− (+− = pIC50 <4.00)
CS(=O)(=O)N1CCC(c2c[nH]c3ccc(C#N)cc23)CC1 [Compound 177]	+ (+ = pIC50 4.00-4.99)	+ (+ = pIC50 4.00-4.99)
CC(=O)N1CC=C(c2c[nH]c3ccc(C(F)(F)F)cc23)CC1 [Compound 229]	+ (+ = pIC50 4.00-4.99)	+ (+ = pIC50 4.00-4.99)
CC(=O)N1CCC(c2c[nH]c3ccc(C#N)cc23)CC1 [Compound 233]	+ (+ = pIC50 4.00-4.99)	+ (+ = pIC50 4.00-4.99)
CC(=O)N1CC=C(c2c[nH]c3cc(Cl)c(F)cc23)CC1 [Compound 228]	++ (++ = pIC50 5.00-5.99)	+ (+ = pIC50 4.00-4.99)
CS(=O)(=O)N1CCC(c2c[nH]c3cc(Cl)c(F)cc23)CC1 [Compound 243]	+ (+ = pIC50 4.00-4.99)	+ (+ = pIC50 4.00-4.99)
CCN(CC)S(=O)(=O)N1CCC(c2c[nH]c3ccccc23)CC1 [Compound 217]	+ (+ = pIC50 4.00-4.99)	+ (+ = pIC50 4.00-4.99)
CS(=O)(=O)N1CC=C(c2c[nH]c3cc(F)cc(F)c23)CC1 [Compound 215]	++ (++ = pIC50 5.00-5.99)	+ (+ = pIC50 4.00-4.99)
CC(=O)N1CC=C(c2c[nH]c3ccc(C#N)cc23)CC1 [Compound 225]	+ (+ = pIC50 4.00-4.99)	+ (+ = pIC50 4.00-4.99)
CS(=O)(=O)N1CCC(c2c[nH]c3ccc(Cl)cc23)CC1 [Compound 239]	++ (++ = pIC50 5.00-5.99)	++ (++ = pIC50 5.00-5.99)
CS(=O)(=O)N1CCC(c2c[nH]c3cc(Cl)ccc23)CC1 [Compound 244]	+ (+ = pIC50 4.00-4.99)	+ (+ = pIC50 4.00-4.99)
CS(=O)(=O)N1CCC(c2c[nH]c3cc(C(F)(F)F)ccc23)CC1 [Compound 234]	+ (+ = pIC50 4.00-4.99)	+ (+ = pIC50 4.00-4.99)

Next, values leading:

A172 Kynurenine cell based assay pIC50 [1]	SKOV3 Kynurenine cell based assay pIC50 [2]	Structure (SMILES)
+ (+ = pIC50 4.00-4.99)	+ (+ = pIC50 4.00-4.99)	COc1cccc(C(=O)N2CCC(c3c[nH]c4cc(F)ccc34)CC2)n1 [Compound 273]
++ (++ = pIC50 5.00-5.99)	+ (+ = pIC50 4.00-4.99)	CC(C)S(=O)(=O)N1CCC(c2c[nH]c3cc(F)ccc23)CC1 [Compound 289]
++ (++ = pIC50 5.00-5.99)	+ (+ = pIC50 4.00-4.99)	CC(=O)N1CCN(c2c[nH]c3ccccc23)CC1(C)C [Compound 299]
++ (++ = pIC50 5.00-5.99)	+ (+ = pIC50 4.00-4.99)	CCCn1cc(C(=O)N2CCC(c3c[nH]c4cc(F)ccc34)CC2)c(C)n1 [Compound 280]
+ (+ = pIC50 4.00-4.99)	+ (+ = pIC50 4.00-4.99)	O=C(CC1CC1)N1CCC(c2c[nH]c3cc(F)ccc23)CC1 [Compound 284]
+ (+ = pIC50 4.00-4.99)	+ (+ = pIC50 4.00-4.99)	Cn1nc(-c2ccccc2)cc1C(=O)N1CCC(c2c[nH]c3cc(F)ccc23)CC1 [Compound 279]
++ (++ = pIC50 5.00-5.99)	+ (+ = pIC50 4.00-4.99)	CCCC(=O)N1CCC(c2c[nH]c3cc(F)ccc23)CC1 [Compound 270]
+ (+ = pIC50 4.00-4.99)	+ (+ = pIC50 4.00-4.99)	CS(=O)(=O)N1CCC(c2c[nH]c3cc(F)c(Cl)cc23)CC1 [Compound 253]
+ (+ = pIC50 4.00-4.99)	+ (+ = pIC50 4.00-4.99)	CN(C)CCOc1ccc2c(C3=CCN(S(C)(=O)=O)CC3)c[nH]c2c1 [Compound 254]
+ (+ = pIC50 4.00-4.99)	+ (+ = pIC50 4.00-4.99)	Fc1ccc2c(C3CCN(c4ccncc4)CC3)c[nH]c2c1 [Compound 301]
++ (++ = pIC50 5.00-5.99)	+ (+ = pIC50 4.00-4.99)	CN(C)S(=O)(=O)N1CCC(c2c[nH]c3cc(F)ccc23)CC1 [Compound 250]
+ (+ = pIC50 4.00-4.99)	+ (+ = pIC50 4.00-4.99)	O=C(C1CC(=O)N(C2CCCC2)C1)N1CCC(c2c[nH]c3cc(F)ccc23)CC1 (stereo not drawn) [Compound 276]
++ (++ = pIC50 5.00-5.99)	+ (+ = pIC50 4.00-4.99)	CC(=O)N1CC=C(c2c[nH]c3cc(OCCN(C)C)ccc23)CC1 [Compound 255]
+ (+ = pIC50 4.00-4.99)	+ (+ = pIC50 4.00-4.99)	COCCN1CC(C(=O)N2CCC(c3c[nH]c4cc(F)ccc34)CC2)CC1=O (stereo not drawn) [Compound 283]
+ (+ = pIC50 4.00-4.99)	+ (+ = pIC50 4.00-4.99)	CC(=O)N1CCC(c2c[nH]c3cc(F)c(Cl)cc23)CC1 [Compound 252]
++ (++ = pIC50 5.00-5.99)	+ (+ = pIC50 4.00-4.99)	CC(=O)N1CCC(c2c[nH]c3cc(Cl)ccc23)CC1 [Compound 245]
++ (++ = pIC50 5.00-5.99)	+ (+ = pIC50 4.00-4.99)	CC(=O)N1CCC(c2c[nH]c3cc(F)ccc23)CC1(C)C (stereo not drawn) [Compound 316]
++ (++ = pIC50 5.00-5.99)	+ (+ = pIC50 4.00-4.99)	O=S(=O)(C1CCCC1)N1CCC(c2c[nH]c3cc(F)ccc23)CC1 [Compound 291]
++ (++ = pIC50 5.00-5.99)	+ (+ = pIC50 4.00-4.99)	CC1(C)CC(c2c[nH]c3cc(F)ccc23)CCN1S(C)(=O)=O (stereo not drawn) [Compound 317]

Reference: patent US9931347B2, “Pharmaceutical compound” (IOmet Pharma Ltd., priority 2013, dated 2018)
